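48-hour exposure; five concentrations; linearly interpolated endpoints. GI50 marks 50% less growth.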 Activity calls are given as the source filed them. Rule as the data show it: active = GI50 up to about 1.1 µM and inactive = higher.
Legend:
Experiment in all cases: growth of human tumour cells (NCI), 48 h
786-0 = system: 786-0
A549 = system: A549
ACHN = system: ACHN
BT-549 = system: BT-549
CAKI-1 = system: CAKI-1
CCRF-CEM = system: CCRF-CEM
COLO 205 = system: COLO 205
DU-145 = system: DU-145
EKVX = system: EKVX
HCC 2998 = system: HCC 2998
HCT-116 = system: HCT-116
HCT-15 = system: HCT-15
HOP-62 = system: HOP-62
HOP-92 = system: HOP-92
HT-29 = system: HT-29
IGROV-1 = system: IGROV-1
K562 = system: K562
KM12 = system: KM12
LOX IMVI = system: LOX IMVI
M14 = system: M14
MCF7 = system: MCF7
MDA-MB-231 = system: MDA-MB-231
MDA-MB-435 = system: MDA-MB-435
MDA-N = system: MDA-N
MOLT-4 = system: MOLT-4
Malme-3M = system: Malme-3M
NCI-H226 = system: NCI-H226
NCI-H23 = system: NCI-H23
NCI-H460 = system: NCI-H460
NCI-H522 = system: NCI-H522
NCI/ADR-RES = system: NCI/ADR-RES
OVCAR-3 = system: OVCAR-3
OVCAR-4 = system: OVCAR-4
OVCAR-5 = system: OVCAR-5
OVCAR-8 = system: OVCAR-8
PC-3 = system: PC-3
RPMI-8226 = system: RPMI-8226
RXF 393 = system: RXF 393
SF-295 = system: SF-295
SF-539 = system: SF-539
SK-MEL-28 = system: SK-MEL-28
SK-MEL-2 = system: SK-MEL-2
SK-MEL-5 = system: SK-MEL-5
SK-OV-3 = system: SK-OV-3
SN12C = system: SN12C
SNB-19 = system: SNB-19
SNB-75 = system: SNB-75
SR = system: SR
SW-620 = system: SW-620
T47D = system: T47D
TK-10 = system: TK-10
U-251 = system: U-251
UACC-257 = system: UACC-257
UACC-62 = system: UACC-62
UO-31 = system: UO-31

SMILES: CCN(C(=S)N[C@@H](Cc1ccccc1)C(=O)N[C@@H](CC(C)C)C(=O)OC)c1ccccc1
- GI50 (786-0): > 100 µM (inactive)
- GI50 (A549): 78.2 µM (inactive)
- GI50 (ACHN): 47.3 µM (inactive)
- GI50 (BT-549): 69 µM (inactive)
- GI50 (CAKI-1): > 100 µM (inactive)
- GI50 (CCRF-CEM): 33.5 µM (inactive)
- GI50 (COLO 205): 49.2 µM (inactive)
- GI50 (DU-145): > 100 µM (inactive)
- GI50 (EKVX): > 100 µM (inactive)
- GI50 (HCC 2998): > 100 µM (inactive)
- GI50 (HCT-116): 75 µM (inactive)
- GI50 (HCT-15): 49 µM
- GI50 (HOP-62): > 100 µM (inactive)
- GI50 (HOP-92): > 100 µM (inactive)
- GI50 (HT-29): 46 µM (inactive)
- GI50 (IGROV-1): 50.4 µM (inactive)
- GI50 (K562): 43.2 µM (inactive)
- GI50 (KM12): 50.9 µM (inactive)
- GI50 (LOX IMVI): > 100 µM (inactive)
- GI50 (M14): > 100 µM (inactive)
- GI50 (MCF7): 34 µM (inactive)
- GI50 (MDA-MB-231): > 100 µM (inactive)
- GI50 (MDA-MB-435): > 100 µM (inactive)
- GI50 (MDA-N): > 100 µM (inactive)
- GI50 (MOLT-4): 23.4 µM (inactive)
- GI50 (Malme-3M): > 100 µM (inactive)
- GI50 (NCI-H226): > 100 µM (inactive)
- GI50 (NCI-H23): 71.4 µM (inactive)
- GI50 (NCI-H460): 58.2 µM (inactive)
- GI50 (NCI-H522): 55.6 µM (inactive)
- GI50 (NCI/ADR-RES): > 100 µM (inactive)
- GI50 (OVCAR-3): > 100 µM (inactive)
- GI50 (OVCAR-4): > 100 µM (inactive)
- GI50 (OVCAR-5): > 100 µM (inactive)
- GI50 (OVCAR-8): > 100 µM (inactive)
- GI50 (PC-3): 63.1 µM (inactive)
- GI50 (RPMI-8226): 75.9 µM (inactive)
- GI50 (RXF 393): > 100 µM (inactive)
- GI50 (SF-295): > 100 µM (inactive)
- GI50 (SF-539): > 100 µM (inactive)
- GI50 (SK-MEL-28): > 100 µM (inactive)
- GI50 (SK-MEL-2): > 100 µM (inactive)
- GI50 (SK-MEL-5): > 100 µM (inactive)
- GI50 (SK-OV-3): > 100 µM (inactive)
- GI50 (SN12C): > 100 µM (inactive)
- GI50 (SNB-19): 49.2 µM (inactive)
- GI50 (SNB-75): > 100 µM (inactive)
- GI50 (SR): 24 µM (inactive)
- GI50 (SW-620): 50.6 µM (inactive)
- GI50 (T47D): > 100 µM (inactive)
- GI50 (TK-10): > 100 µM (inactive)
- GI50 (U-251): 50.7 µM (inactive)
- GI50 (UACC-257): > 100 µM (inactive)
- GI50 (UACC-62): > 100 µM (inactive)
- GI50 (UO-31): > 100 µM (inactive)
